Test results as given in patent US20210070730A1, “H2S-BASED THERAPEUTIC AGENTS FOR THE TREATMENT OF NEURODEGENERATIVE DISEASES” (INTERNATIONAL SOCIETY FOR DRUG DEVELOPMENT S.R.L., priority 2017, published 2021).
Like-named read-outs stand apart in the source and are kept apart here. Marks after values point to notes of the source that are not given here.

Tests used:
[1] = target: NMDAR; experiment: Displacement of specific [3H]MK-801 binding in rat cortex membranes
Procedure: [^3H]MK-801 Binding Assay. Crude synaptic membranes were prepared from the cerebral cortex of Sprague-Dawley rats. The pellets were stored at −80° C. for at least 24 h, and washed three more times with Tris-HEPES buffer (Tris 4.5 mM, HEPES 5 mM, pH 7.4) to remove the endogenous amino acids before the binding assay. In the binding assay, 50 μL of membrane preparation (40-50 μg protein), and 10 μL of compound were mixed at 25° C. in the presence of […] L-glutamate (10 μM) and 50 μL of glycine (10 μM). Then, 50 μl of [^3H]MK-801 (final concentration 3 nM) were added to the preparation. Tris-HEPES buffer was added to a final volume of 0.5 mL. Following incubation time of 2 h at 25° C., binding was terminated by filtration […]. Radioactivity was measured using a PerkinElmer liquid scintillation counter. Nonspecific binding was determined in the presence of unlabeled 100 μM MK-801. […] For compound activity determination, aliquots of membrane pellets were incubated with different ligand concentrations of MT66 and reference drug (10 nM-10 μM) in the absence of presence of 4 mM Cysteine for 30 min, and then incubated with 3 nM [^3H]MK-801 for 2 h at 25° C. Samples were then filtered, and the radioactivity was counted.
Displacement of specific [^3H]MK-801 binding in rat cortex membranes in the absence or presence of cysteine (Cys). MT66 was tested to assess its abilities to inhibit native-target activity (i.e. NMDAR). Binding to specific receptors (such as NMDAR) has been assessed using the assay based on the displacement of [^3H]MK-801 [19]. The evaluation has been performed in the presence and in absence of Cys.

[2] = tested on: U87MG cells; experiment: Western blot of autophagy markers in U87MG cells; format: cell-based, human; conditions: 10 μM; for LC3II expression (LC3II/LC3I ratio) / p62 expression / p-mTOR expression (p-mTOR/mTOR ratio): 4 h; for LC3II expression: 24 h
Procedure: FIG. 6. Western blot quantification of LC3II/LC3I ratio, p62, mTOR and Akt as hallmarks of the degree of ATG activation. […] (D) Western blot quantification of pAkt/Akt ratio in U87MG cells. Results represent mean±SEM of three different gels. *P<0.05, **P<0.01, ***P<0.001 versus vehicle treated cells (Control).
Western blot analysis. The human U-87MG cells were seeded in 6-well plates in a final volume of 2 ml/well at a density of 1×10^6/well and grown to 80% of confluence with standard medium (DMEM-High Glucose). Cells were treated with vehicle (0.1% DMSO) or test compounds (i.e. 10 μM Memantine or Memit and (1 μM) Rapamycin and incubated at 37° C. for 4 and 24 h. Treated cells were washed twice with PBS and lysed in Tris-buffered saline buffer-1% Triton-X100; NaCl 150 mM; Tris-HCl 20 mM; EDTA 1 mM; EGTA 1 mM; NaF 20 mM; Na4P2O7 25 mM; Na3VO4 1 mM; PMSF 1 mM; 8 μ/ml protein cocktail inhibitors (Sigma-Aldrich, Milan, Italy). Proteins (30-40 μg) were separated on Criterion TGX™ gel (4-20%) and transferred on Immuno-PVDF membrane (Bio-Rad, Milan, Italy) for 1 h. Blots were incubated for 12 h with diluted primary antibody [1:1000, LC3A/B; p62; mTOR, p-mTOR; Akt, p-Akt(Ser 473); β-actin, Cell Signaling] in 5% w/v BSA, 1× TBS and 0.1% Tween 20 at 4° C. under gentle shaking. Then, blots were washed three times for 10 min with 1× TBS, 0.1% Tween 20 and incubated for 1 h with secondary antibody (peroxidase-coupled anti rabbit in 1× TBS, 0.1% Tween 20). […] Band densitometric analysis was performed using Image Lab Software (Bio-Rad, Milan, Italy).
Evaluation of proautophagic activity: Expression of protein LC3-II, p62, and m-TOR, indicators of autophagy, were detected by western blotting, using Rapamycin as a positive control. In U87MG cell lines.

[3] = tested on: Rat microglia cells; experiment: Microglia protection from Aβ(1-42) induced injury (MTS assay); format: cell-based; conditions: 10 μM pre-treatment 24 h, then Aβ1-42 24 h
Procedure: FIG. 7. Rat microglia cells were pre-treated with the compounds (10 μM) for 24 h. After washing, the cells were incubated with Aβ1-42 for 24 h. At the end of treatments, cell proliferation was measured by MTS assay. The data are expressed as percentages relative to untreated cells (control), which were set at 100%, and represent the mean±SEM of three independent experiments, each performed in triplicate. Statistical significance was determined using a one-way ANOVA followed by a Bonferroni post-test: *p<0.05 vs control; #p<0.05 vs cells treated with Aβ1-42.
Cell proliferation/viability assays on rat microglia cells. Rat microglia cells were isolated from mixed cell culture obtained from Sprague-Dawley rat cortex, by gentle physical shaking, as described. After isolation, cells were seeded into 96 well-plated with fresh culture media and pretreated with MT66 or native drug (10 μM) for 24 h; before washing and incubation with Aβ1-42 for 24 h. Following incubation time, cell viability was determined using the MTS assay. The absorbance of formazan was measured at […]. The results were calculated by subtracting the mean background from the values obtained from each test condition and were expressed as the percentage of the control (untreated cells).
Microglia protection from Aβ(1-42) induced injury. Microglia, together with astrocytes, forms the main active immune defense of the CNS. […]

[4] = Amperometric determination of H2S release; format: physicochemical; conditions: assay buffer, absence or presence of L-cysteine
Procedure: FIG. 1: Curves describe the increase of H2S concentration, with respect to time, following the incubation of GYY 4137, the H2S-prodrug MT66 in the assay buffer, in the absence (white symbol) or in the presence of L-cysteine (black symbol) or glutathione (black triangles). H2S was recorded by amperometry; the vertical bars indicate the SEM.
Amperometric Determination of H2S: The characterization of the H2S-generating properties of the new compounds was carried out by amperometric approaches through an Apollo-4000 Free Radical Analyzer (WPI) detector and H2S-selective minielectrodes. The procedure has been recently reported by us.
The H2S-releasing properties were evaluated both in the absence or in the presence of an organic thiol such as L-cysteine.

[5] = tested on: Aβ(1-40) self-induced aggregation; experiment: Thioflavin T fluorescence assay of Aβ aggregation; format: cell-based; conditions: 10 μM pre-treatment 24 h, ThT fluorescence
Procedure: The Thioflavin T fluorescence assay. Thioflavin T (ThT) dye fluorescence was used to quantify the formation and inhibition of amyloid oligomers in the presence of anti-amyloidogenic compounds. The ThT stock solution was prepared by adding 8 mg ThT to 10 mL phosphate buffer (10 mM phosphate, 150 mM NaCl, pH 7.0) and filter through a 0.2 μm syringe filter. This stock solution should be stored in the dark and is stable for about one week. On the day of the analysis, the stock solution was diluted into PBS to obtain the concentration of 10 μM. The Aβ1-42 oligomers were prepared by diluting the stock solution in PBS and the dilution was shaking for 48 hours at 37° C. The cells were seeded in black 96-multiwell plate (3000 c/w) and treated with the compound MT66 and reference drug (10 μM) for 24 h. Following incubation time, cells were washed and incubated with Aβ1-42 oligomers for 24 h. After this time, 200 μl of ThT 10 μM were added to each well in the dark. The ThT fluorescence intensity of each sample was recorded every 5 min using a spectrophotometer by excitation at 355 nm and emission 535 nm.
Inhibition of Aβ(1-40) self-induced aggregation. The new compound was also tested to evaluate their ability to inhibit the Aβ(1-40) self-induced aggregation.

[6] = tested on: Human neuronal-like cells; experiment: Neuroprotection in LPS/TNF-α challenged neuronal-like cells (MTS assay); format: cell-based; conditions: 10 μM pre-treatment 24 or 72 h, then 50 μg/ml LPS and 50 ng/ml TNF-α 16 h
Procedure: FIG. 2: Neuroprotective effects. Human neuronal-like cells were treated with medium alone (CONTROL) or with the compounds (10 μM) for 24 h (light grey) or 72 h(dark grey); after drug removal, cells were incubated with 50 μg/ml LPS and 50 ng/ml TNF-α for an additional 16 h. At the end of treatment, cell proliferation was measured by MTS assay. The data are expressed as percentages relative to untreated cells (control), which were set at 100%, and represent the mean±SEM of three independent experiments, each performed in triplicate. Statistical significance was determined using a one-way ANOVA-Tukey HSD post hoc test: *P<0.05, ***P<0.001 vs. control; ##P<0.01, ###P<0.001 vs. cells treated with LPS-TNF-α.
Cell proliferation/viability assays: Following incubation time, cell viability was determined using the MTS assay according to the manufacturer's instruction. […] The absorbance of formazan at […] was measured in a colorimetric assay with an automated plate reader. The results were calculated by subtracting the mean background from the values obtained from each test condition, and are expressed as the percentage of the control (untreated cells).
Evaluation of neuroprotective effects. […] The effects of H2S prodrug under physiological conditions and under inflammatory stress exposure were assessed by measuring cellular viability.

[7] = tested on: Human neuronal-like cells; experiment: ROS production in LPS/TNF-α challenged neuronal-like cells (DCFH2-DA); format: cell-based; conditions: 10 μM pre-treatment 24 h, then LPS and TNF-α 16 h
Procedure: FIG. 3. Effects induced on ROS production. Human neuronal-like cells were treated with medium alone (CONTROL) or the compound (10 μM) for 24 h; after drug removal, cells were incubated with 50 μg/ml LPS and 50 ng/ml TNF-α for an additional 16 h. At the end of treatment, ROS production was measured using the fluorogenic probe DCFH2-DA. The data are expressed as percentages relative to untreated cells (control), which were set at 100%, and represent the mean±SEM of two independent experiments, each performed in triplicate. Statistical significance was determined using a one-way ANOVA-Tukey HSD post hoc test: ***P<0.001 vs. control; ###P<0.001 vs. cells treated with LPS-TNF-α.
Mitochondria ROS generation: The generation of ROS was assessed by the fluorogenic probe DCFH2-DA (Molecular Probes, Invitrogen) in Neuronal-like cells, differentiated from H9-derived NSCs.). […] This nonfluorescent molecule is readily converted to a green-fluorescent form […] when the acetate group is removed by intracellular esterases and an oxidation by ROS occurs within the cell. […] Fluorescence increase was estimated in a plate reader at 485 nm (excitation) and 520 nm (emission) (Wallac, Victor 2, 1420 multilabel counter, PerkinElmer). The fluorescence values were normalized between samples for cell number content and assessed by a crystal violet cell staining assay. […]

[8] = presence of 4 mM cysteine, 30 min preincubation, read-out: Ki, nM (+Cys 4 mM, 30 min)

## CC12CC3CC(C)(C1)CC(N)(C3)C2 [Memantine, reference compound]
[1]; absence of cysteine, 3 nM [3H]MK-801, rat cortex membranes, read-out: Ki, nM (−Cys)
  Ki: 955 ± 74.2 nM
[1]; [8]
  Ki: 329 ± 10.9 nM
[2]
  LC3II expression (LC3II/LC3I ratio): significant up-regulation
  p62 expression: decreased expressions
  p-mTOR expression (p-mTOR/mTOR ratio): decreased expressions
  LC3II expression: remained almost unchanged
[3]
  cell proliferation after Aβ1-42 oligomers: completely restore cell proliferation

## CC12NC(Cc3ccccc31)c1ccccc12 (centres unmarked) [[^3H]MK-801]
[1]; rat cortex membranes, read-out: dissociation constant (Kd) of [3H]MK-801
  Kd: 4 nM

## C1COCCN1.COc1ccc(P(=S)(S)N2CCOCC2)cc1 (centres unmarked) [GYY4137, reference compound]
[4]
  H2S-releasing properties: slow H2S-releasing

## CC12CC3CC(C)(C1)CC(N=C=S)(C3)C2 [MT66]
[1]; absence of cysteine, concentration not given
  Percentage of inhibition of specific [3H]MK-801 binding (−Cys): 28.0% ^b
[1]; [8]
  Ki: 458 ± 77.7 nM
[4]
  H2S-releasing properties: slow and L-cysteine-dependent H2S-releasing mechanism
[5]
  Aβ(1-40) self-induced aggregation: induces a reduction
[2]
  LC3II expression (LC3II/LC3I ratio): significant up-regulation
  p62 expression: decreased expressions
  p-mTOR expression (p-mTOR/mTOR ratio): decreased expressions
  LC3II expression: remained almost unchanged
[3]
  cell proliferation after Aβ1-42 oligomers: completely restore cell proliferation
[6]
  cell proliferation/viability after inflammatory insult: exhibited neuroprotective effects during inflammation
[7]
  ROS accumulation under inflammatory conditions: almost completely counteracted inflammatory-mediated effects
